Reference: ChEMBL document CHEMBL4020786, “Discovery of pyrazolo[1,5-a]pyrimidine-3-carbonitrile derivatives as a new class of histone lysine demethylase 4D (KDM4D) inhibitors” (Bioorg Med Chem Lett, 2017)

Key:
[1] = molecular target: T1, Lysine-specific demethylase 4D (Homo sapiens) (UniProt Q6B0I6); experiment: Inhibition of KDM4D (unknown origin) at 10 uM using biotinylated H3 derived peptide as substrate preincubated for 15 mins followed by substrate addition measured after 1 hr by AlphaLISA method
T1 sequence (whole entry): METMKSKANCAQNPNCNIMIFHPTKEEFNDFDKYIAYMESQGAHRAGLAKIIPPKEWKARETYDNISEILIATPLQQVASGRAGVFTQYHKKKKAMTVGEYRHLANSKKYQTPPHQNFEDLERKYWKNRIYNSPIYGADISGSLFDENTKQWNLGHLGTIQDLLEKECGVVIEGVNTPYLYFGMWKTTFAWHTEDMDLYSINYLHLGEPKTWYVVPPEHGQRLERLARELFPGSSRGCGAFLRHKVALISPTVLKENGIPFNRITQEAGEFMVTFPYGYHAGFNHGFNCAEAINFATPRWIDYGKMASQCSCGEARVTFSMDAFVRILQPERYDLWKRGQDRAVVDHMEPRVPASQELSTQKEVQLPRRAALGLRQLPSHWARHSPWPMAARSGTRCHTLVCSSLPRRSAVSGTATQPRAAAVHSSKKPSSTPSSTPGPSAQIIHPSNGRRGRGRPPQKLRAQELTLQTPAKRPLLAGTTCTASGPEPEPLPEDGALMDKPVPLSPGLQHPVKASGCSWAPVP

[2] = molecular target: Lysine-specific demethylase 3B (Homo sapiens) (UniProt Q7LBC6); experiment: Inhibition of KDM3B (unknown origin) at 10 uM
[3] = molecular target: Lysine-specific demethylase 5A (Homo sapiens) (UniProt P29375); experiment: Inhibition of KDM5A (unknown origin) at 10 uM
[4] = molecular target: T2, Lysine-specific demethylase 4D (Homo sapiens, UniProt Q6B0I6); experiment: Inhibition of KDM4D (unknown origin) using biotinylated H3 derived peptide as substrate preincubated for 15 mins followed by substrate addition measured after 1 hr by AlphaLISA method
T2 sequence (Q6B0I6 whole entry): T1 sequence (whole entry)

[5] = molecular target: T3, Lysine-specific demethylase 2B (Homo sapiens) (UniProt Q8NHM5); experiment: Inhibition of KDM2B (unknown origin) at 10 uM
T3 sequence (whole entry): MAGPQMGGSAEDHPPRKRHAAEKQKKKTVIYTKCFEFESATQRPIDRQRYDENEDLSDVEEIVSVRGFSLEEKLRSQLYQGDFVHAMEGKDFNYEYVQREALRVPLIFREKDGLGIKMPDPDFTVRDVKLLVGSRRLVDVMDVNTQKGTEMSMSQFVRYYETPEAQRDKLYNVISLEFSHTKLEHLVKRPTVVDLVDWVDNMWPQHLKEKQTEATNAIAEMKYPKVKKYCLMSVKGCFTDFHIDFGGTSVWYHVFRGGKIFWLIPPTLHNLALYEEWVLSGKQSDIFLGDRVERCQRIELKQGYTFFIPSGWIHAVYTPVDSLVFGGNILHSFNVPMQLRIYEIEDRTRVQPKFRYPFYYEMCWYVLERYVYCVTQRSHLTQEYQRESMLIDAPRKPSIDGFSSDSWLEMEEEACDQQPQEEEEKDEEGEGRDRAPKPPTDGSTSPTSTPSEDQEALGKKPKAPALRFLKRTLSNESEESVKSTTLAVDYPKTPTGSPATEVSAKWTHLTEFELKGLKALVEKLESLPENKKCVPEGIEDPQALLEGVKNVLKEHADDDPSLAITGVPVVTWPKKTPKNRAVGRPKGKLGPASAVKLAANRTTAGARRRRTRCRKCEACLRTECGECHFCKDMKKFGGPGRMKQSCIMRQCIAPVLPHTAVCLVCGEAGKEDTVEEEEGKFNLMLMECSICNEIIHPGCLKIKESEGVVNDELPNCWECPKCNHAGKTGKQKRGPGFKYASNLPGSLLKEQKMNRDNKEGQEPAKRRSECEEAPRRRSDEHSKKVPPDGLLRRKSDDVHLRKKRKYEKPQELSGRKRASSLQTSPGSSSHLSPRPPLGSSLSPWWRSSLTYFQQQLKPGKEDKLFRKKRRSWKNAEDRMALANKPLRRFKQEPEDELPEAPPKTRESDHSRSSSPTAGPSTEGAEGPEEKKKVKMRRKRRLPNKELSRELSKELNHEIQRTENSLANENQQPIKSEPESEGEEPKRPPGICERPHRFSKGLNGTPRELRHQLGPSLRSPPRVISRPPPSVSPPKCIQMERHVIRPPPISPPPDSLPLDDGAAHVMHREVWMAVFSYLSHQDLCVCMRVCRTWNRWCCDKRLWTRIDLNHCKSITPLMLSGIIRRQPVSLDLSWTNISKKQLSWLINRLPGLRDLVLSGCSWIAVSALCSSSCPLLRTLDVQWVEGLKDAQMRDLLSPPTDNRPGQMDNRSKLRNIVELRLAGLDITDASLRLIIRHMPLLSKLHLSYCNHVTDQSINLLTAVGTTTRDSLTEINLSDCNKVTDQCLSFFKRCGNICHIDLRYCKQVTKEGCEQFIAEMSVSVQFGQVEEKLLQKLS

Sequence of Lysine-specific demethylase 5A (Homo sapiens) (P29375 whole entry): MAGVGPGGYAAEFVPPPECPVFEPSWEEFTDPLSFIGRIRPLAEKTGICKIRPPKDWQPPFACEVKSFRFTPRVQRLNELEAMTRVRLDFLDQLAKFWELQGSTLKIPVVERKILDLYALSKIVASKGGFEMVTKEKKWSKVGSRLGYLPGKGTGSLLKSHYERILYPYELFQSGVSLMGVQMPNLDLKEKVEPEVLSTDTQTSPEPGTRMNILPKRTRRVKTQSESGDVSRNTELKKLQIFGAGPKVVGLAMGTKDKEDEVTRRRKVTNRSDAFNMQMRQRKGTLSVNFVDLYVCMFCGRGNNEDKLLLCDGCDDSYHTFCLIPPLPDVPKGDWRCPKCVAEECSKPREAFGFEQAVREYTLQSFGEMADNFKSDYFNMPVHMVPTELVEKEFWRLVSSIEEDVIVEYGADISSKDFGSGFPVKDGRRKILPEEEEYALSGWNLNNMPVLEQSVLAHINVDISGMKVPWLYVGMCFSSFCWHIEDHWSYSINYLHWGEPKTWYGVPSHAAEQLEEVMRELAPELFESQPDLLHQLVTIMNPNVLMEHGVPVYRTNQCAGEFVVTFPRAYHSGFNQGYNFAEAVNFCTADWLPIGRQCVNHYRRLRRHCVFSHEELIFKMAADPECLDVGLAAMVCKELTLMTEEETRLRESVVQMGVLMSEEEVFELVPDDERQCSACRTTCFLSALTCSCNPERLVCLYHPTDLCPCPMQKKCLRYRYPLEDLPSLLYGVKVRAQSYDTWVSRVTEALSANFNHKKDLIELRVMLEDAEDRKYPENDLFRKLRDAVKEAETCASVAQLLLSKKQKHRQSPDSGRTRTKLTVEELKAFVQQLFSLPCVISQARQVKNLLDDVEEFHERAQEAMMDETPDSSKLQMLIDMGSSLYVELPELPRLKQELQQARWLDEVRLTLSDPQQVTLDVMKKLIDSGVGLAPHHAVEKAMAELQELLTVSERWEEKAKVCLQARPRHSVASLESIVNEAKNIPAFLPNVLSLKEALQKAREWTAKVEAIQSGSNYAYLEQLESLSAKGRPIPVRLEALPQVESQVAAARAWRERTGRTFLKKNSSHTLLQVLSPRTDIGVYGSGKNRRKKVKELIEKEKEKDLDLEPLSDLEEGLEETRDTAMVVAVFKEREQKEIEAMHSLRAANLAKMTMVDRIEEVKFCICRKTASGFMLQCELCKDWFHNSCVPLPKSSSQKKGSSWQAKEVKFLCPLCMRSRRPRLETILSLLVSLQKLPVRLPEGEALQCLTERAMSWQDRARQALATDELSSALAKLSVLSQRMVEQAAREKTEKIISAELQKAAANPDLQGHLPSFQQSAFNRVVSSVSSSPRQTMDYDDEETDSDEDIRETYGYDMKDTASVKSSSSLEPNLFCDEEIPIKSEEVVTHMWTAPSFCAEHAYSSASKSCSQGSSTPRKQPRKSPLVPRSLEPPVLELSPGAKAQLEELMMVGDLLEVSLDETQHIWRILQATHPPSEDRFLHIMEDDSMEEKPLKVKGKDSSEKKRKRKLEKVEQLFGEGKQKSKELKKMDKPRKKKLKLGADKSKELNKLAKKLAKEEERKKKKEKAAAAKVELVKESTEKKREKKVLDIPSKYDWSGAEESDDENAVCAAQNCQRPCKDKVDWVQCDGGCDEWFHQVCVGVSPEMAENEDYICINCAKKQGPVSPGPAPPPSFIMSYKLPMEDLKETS
Sequence of Lysine-specific demethylase 3B (Homo sapiens) (Q7LBC6 whole entry): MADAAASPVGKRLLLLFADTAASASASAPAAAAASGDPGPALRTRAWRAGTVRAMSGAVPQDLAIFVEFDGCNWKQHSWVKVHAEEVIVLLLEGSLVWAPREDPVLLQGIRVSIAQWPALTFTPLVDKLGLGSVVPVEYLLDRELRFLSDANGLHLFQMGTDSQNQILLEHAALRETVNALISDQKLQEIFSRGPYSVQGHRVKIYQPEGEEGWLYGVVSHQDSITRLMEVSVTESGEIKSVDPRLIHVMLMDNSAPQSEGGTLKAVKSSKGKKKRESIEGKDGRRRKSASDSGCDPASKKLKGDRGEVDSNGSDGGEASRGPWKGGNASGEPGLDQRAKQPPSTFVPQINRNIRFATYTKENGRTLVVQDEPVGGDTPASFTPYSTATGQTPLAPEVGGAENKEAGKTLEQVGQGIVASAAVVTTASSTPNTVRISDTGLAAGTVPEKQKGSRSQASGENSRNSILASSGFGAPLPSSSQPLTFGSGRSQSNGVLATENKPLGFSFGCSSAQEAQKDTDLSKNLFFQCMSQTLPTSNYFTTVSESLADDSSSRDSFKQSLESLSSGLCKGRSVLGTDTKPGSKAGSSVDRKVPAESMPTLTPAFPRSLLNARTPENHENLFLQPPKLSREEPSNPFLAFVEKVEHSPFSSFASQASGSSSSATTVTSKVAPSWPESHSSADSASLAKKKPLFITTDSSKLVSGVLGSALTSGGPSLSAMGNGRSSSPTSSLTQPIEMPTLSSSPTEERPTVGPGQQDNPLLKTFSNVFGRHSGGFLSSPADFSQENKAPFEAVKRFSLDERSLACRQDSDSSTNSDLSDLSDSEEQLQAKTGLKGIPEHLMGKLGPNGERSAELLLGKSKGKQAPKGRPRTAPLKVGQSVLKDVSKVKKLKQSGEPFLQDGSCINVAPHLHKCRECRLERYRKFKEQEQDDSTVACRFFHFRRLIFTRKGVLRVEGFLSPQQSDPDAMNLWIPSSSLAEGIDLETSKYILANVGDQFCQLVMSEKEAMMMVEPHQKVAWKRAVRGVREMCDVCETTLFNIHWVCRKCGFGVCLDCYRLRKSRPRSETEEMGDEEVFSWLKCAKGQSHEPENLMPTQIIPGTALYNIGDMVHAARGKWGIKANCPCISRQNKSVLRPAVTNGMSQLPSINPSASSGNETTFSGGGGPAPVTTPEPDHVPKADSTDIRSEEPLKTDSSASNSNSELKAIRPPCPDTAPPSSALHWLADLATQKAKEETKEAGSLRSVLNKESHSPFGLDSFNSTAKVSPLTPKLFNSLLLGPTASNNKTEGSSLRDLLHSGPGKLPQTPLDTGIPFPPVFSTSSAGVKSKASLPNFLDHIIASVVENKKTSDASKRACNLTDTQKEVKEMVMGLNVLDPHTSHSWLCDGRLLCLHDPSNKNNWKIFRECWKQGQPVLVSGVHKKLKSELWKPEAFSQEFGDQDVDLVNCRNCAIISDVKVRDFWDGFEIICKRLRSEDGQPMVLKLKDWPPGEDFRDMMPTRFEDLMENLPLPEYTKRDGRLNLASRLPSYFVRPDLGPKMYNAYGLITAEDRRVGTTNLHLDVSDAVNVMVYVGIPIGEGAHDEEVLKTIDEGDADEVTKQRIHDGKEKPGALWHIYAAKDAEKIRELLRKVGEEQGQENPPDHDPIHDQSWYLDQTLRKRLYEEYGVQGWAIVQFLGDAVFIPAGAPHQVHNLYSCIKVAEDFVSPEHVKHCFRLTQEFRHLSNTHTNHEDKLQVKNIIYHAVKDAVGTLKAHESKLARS

Compound | inhibition [1] [%] | further results
N#Cc1cnn2c1nc(O)c1cccc([N+](=O)[O-])c12 | 73.3 | inhibition [2]: -2.18%; inhibition [3]: 23.1%; IC50 [4]: 3.14 µM; inhibition [5]: -4.85%
Cc1nc2c(C#N)cnn2c2ncccc12 | 22.9 | 
N#Cc1c(-c2ccccc2)nn2c1nc(O)c1cccnc12 | 23.6 | 
N#Cc1cnn2c1nc(O)c1ccc([N+](=O)[O-])cc12 | 4.75 | 
N#Cc1cnn2c1nc(O)c1cc([N+](=O)[O-])cnc12 | 1.91 | 
N#Cc1cnn2c1nc(O)c1ccccc12 | 9.03 | 
CS(=O)(=O)c1ccc2c(O)nc3c(C#N)cnn3c2c1 | 9.63 | 
N#Cc1cnn2c1nc(O)c1ncccc12 | 5.26 | 
N#Cc1cnn2c1nc(O)c1cnccc12 | 16.4 | 
N#Cc1cnn2c1ncc1cccnc12 | 85.1 | IC50 [4]: 4.03 µM
N#Cc1cnn2c1nc(O)c1ccncc12 | 68.1 | 
Oc1ccccc1-c1ccn(-c2nccc(N3CCOCC3)n2)n1 | 99.7 | inhibition [2]: 90.7%; inhibition [3]: 73.6%; inhibition [5]: 84.1%
N#Cc1cnn2c1nc(O)c1cccc(N)c12 | 62.3 | 
Cc1nn2c(nc(O)c3cccnc32)c1C#N | 88.8 | IC50 [4]: 0.41 µM
CCc1nn2c(nc(O)c3cccnc32)c1C#N | 78.1 | IC50 [4]: 1.85 µM

More lines, main results first:

inhibition [1] [%] | Compound | further results
58.7 | N#Cc1cnn2c1nc(O)c1ccc(Cl)nc12 | 
20.1 | N#Cc1cnn2c1nc(O)c1cccnc12 | 
-0.35 | N#Cc1cnn2c1nc(O)c1ccc(C(F)(F)F)cc12 | 
-2.25 | N#Cc1cnn2c1nc(O)c1ccc(N)cc12 | 
21.9 | Cc1ccc2c(O)nc3c(C#N)cnn3c2n1 | 
10.4 | N#Cc1cnn2c1nc(O)c1ccc(C(F)(F)F)nc12 | 
8.63 | N#Cc1cnn2c1nc(O)c1cccc(C(F)(F)F)c12 | 
